Test results: PubChem BioAssay AID248 (DTP/NCI, 2004)
“And” between values parts separate entries of the source, which are not always exact repeats. Identical values can stand only once. Inconclusive results and toxic doses are left out.

Tested on: L1210 leukemia ip in BDF1 mice, survival T/C
Test: NCI In Vivo Anticancer Drug Screen. Data for tumor model L1210 Leukemia (intraperitoneal) in B6D2F1 (BDF1) mice
Conditions: endpoint: mean survival time, higher = longer survival
Outline: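 Survival endpoint. Drug-treated group vs vehicle group, expressed as T divided by C. Tumor passaged by transplantation.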

O=C(Nc1ccc(C2=NCCCN2)cc1)c1ccc(NC(=O)c2ccc(C3=NCCCN3)cc2)cc1
T/C (dose: 0.03 mg/kg/injection, schedule: Q01DX Z (iv), vehicle: water): 107 % of control | T/C (dose: 0.06 mg/kg/injection, schedule: Q01DX Z (iv), vehicle: water): 102 % of control | T/C (dose: 0.12 mg/kg/injection, schedule: Q01DX Z (ip), vehicle: carboxymethylcellulose (CMC)): 102 % of control | T/C (dose: 0.12 mg/kg/injection, schedule: Q01DX Z (iv), vehicle: water): 113 % of control | T/C (dose: 0.2 mg/kg/injection, schedule: Q01DX006 (iv), vehicle: carboxymethylcellulose (CMC)): 119 % of control | T/C (dose: 0.25 mg/kg/injection, schedule: Q01DX Z (ip), vehicle: carboxymethylcellulose (CMC)): 103 % of control | T/C (dose: 0.25 mg/kg/injection, schedule: Q01DX Z (iv), vehicle: water): 94 % of control | T/C (dose: 0.4 mg/kg/injection, schedule: Q01DX006 (iv), vehicle: carboxymethylcellulose (CMC)): 113 % of control | T/C (dose: 0.5 mg/kg/injection, schedule: Q01DX Z (ip), vehicle: carboxymethylcellulose (CMC)): 107 % of control | T/C (dose: 0.5 mg/kg/injection, schedule: Q01DX Z (sc), vehicle: saline): 108 % of control | T/C (dose: 0.6 mg/kg/injection, schedule: Q01DX006 (iv), vehicle: carboxymethylcellulose (CMC)): 120 % of control | T/C (dose: 0.8 mg/kg/injection, schedule: Q01DX006 (iv), vehicle: carboxymethylcellulose (CMC)): 111 % of control | T/C (dose: 0.94 mg/kg/injection, schedule: Q01DX Z (ip), vehicle: saline): 120 % of control | T/C (dose: 1.0 mg/kg/injection, schedule: Q01DX Z (sc), vehicle: saline): 110 % of control | T/C (dose: 1.76 mg/kg/injection, schedule: Q01DX015 (ip), vehicle: carboxymethylcellulose (CMC)): 154 % of control | T/C (dose: 2.0 mg/kg/injection, schedule: Q01DX010 (ip), vehicle: other): 160 % of control and 162 % of control | T/C (dose: 2.0 mg/kg/injection, schedule: Q01DX Z (sc), vehicle: saline): 110 % of control | T/C (dose: 2.6 mg/kg/injection, schedule: Q01DX015 (ip), vehicle: carboxymethylcellulose (CMC)): 230 % of control | T/C (dose: 3.75 mg/kg/injection, schedule: Q01DX Z (ip), vehicle: saline): 245 % of control | T/C (dose: 4.0 mg/kg/injection, schedule: Q01DX010 (ip), vehicle: other): 215 % of control and 217 % of control and 251 % of control | T/C (dose: 4.0 mg/kg/injection, schedule: Q01DX015 (ip), vehicle: carboxymethylcellulose (CMC)): 305 % of control | T/C (dose: 4.0 mg/kg/injection, schedule: Q01DX Z (sc), vehicle: saline): 156 % of control and 195 % of control | T/C (dose: 6.0 mg/kg/injection, schedule: Q01DX015 (ip), vehicle: carboxymethylcellulose (CMC)): 319 % of control | T/C (dose: 8.0 mg/kg/injection, schedule: Q01DX010 (ip), vehicle: other): 245 % of control and 258 % of control and 345 % of control | T/C (dose: 8.0 mg/kg/injection, schedule: Q01DX Z (sc), vehicle: saline): 259 % of control | T/C (dose: 9.0 mg/kg/injection, schedule: Q01DX015 (ip), vehicle: carboxymethylcellulose (CMC)): 180 % of control | T/C (dose: 10.0 mg/kg/injection, schedule: Q01DX010 (sc), vehicle: saline): 106 % of control | T/C (dose: 10.0 mg/kg/injection, schedule: Q02DX004 (im), vehicle: olive oil, sesame oil, peanut oil): 154 % of control and 178 % of control | T/C (dose: 14.0 mg/kg/injection, schedule: Q01DX001 (ip), vehicle: other): 156 % of control | T/C (dose: 16.0 mg/kg/injection, schedule: Q01DX010 (ip), vehicle: other): 97 % of control and 98 % of control and 100 % of control | T/C (dose: 16.0 mg/kg/injection, schedule: Q01DX Z (sc), vehicle: carboxymethylcellulose (CMC)): 102 % of control | T/C (dose: 16.0 mg/kg/injection, schedule: Q01DX Z (sc), vehicle: saline): 124 % of control | T/C (dose: 20.0 mg/kg/injection, schedule: Q01DX001 (im), vehicle: steriod suspending solution): 110 % of control | T/C (dose: 20.0 mg/kg/injection, schedule: Q01DX010 (sc), vehicle: olive oil, sesame oil, peanut oil): 87 % of control | T/C (dose: 20.0 mg/kg/injection, schedule: Q01DX010 (sc), vehicle: saline): 87 % of control | T/C (dose: 20.0 mg/kg/injection, schedule: Q02DX004 (im), vehicle: olive oil, sesame oil, peanut oil): 250 % of control and 285 % of control | T/C (dose: 21.0 mg/kg/injection, schedule: Q01DX001 (ip), vehicle: carboxymethylcellulose (CMC)): 156 % of control | T/C (dose: 21.0 mg/kg/injection, schedule: Q01DX001 (ip), vehicle: saline): 159 % of control and 172 % of control | T/C (dose: 32.0 mg/kg/injection, schedule: Q01DX001 (ip), vehicle: carboxymethylcellulose (CMC)): 172 % of control | T/C (dose: 32.0 mg/kg/injection, schedule: Q01DX001 (ip), vehicle: other): 202 % of control | T/C (dose: 32.0 mg/kg/injection, schedule: Q01DX001 (ip), vehicle: saline): 196 % of control | T/C (dose: 40.0 mg/kg/injection, schedule: Q01DX001 (im), vehicle: steriod suspending solution): 173 % of control | T/C (dose: 40.0 mg/kg/injection, schedule: Q02DX004 (im), vehicle: olive oil, sesame oil, peanut oil): 100 % of control and 86 % of control | T/C (dose: 48.0 mg/kg/injection, schedule: Q01DX001 (ip), vehicle: carboxymethylcellulose (CMC)): 219 % of control | T/C (dose: 48.0 mg/kg/injection, schedule: Q01DX001 (ip), vehicle: saline): 243 % of control and 247 % of control | T/C (dose: 62.0 mg/kg/injection, schedule: Q01DX Z (oral), vehicle: carboxymethylcellulose (CMC)): 102 % of control | T/C (dose: 62.5 mg/kg/injection, schedule: Q01DX010 (oral), vehicle: other): 105 % of control | T/C (dose: 72.0 mg/kg/injection, schedule: Q01DX001 (ip), vehicle: saline): 103 % of control and 229 % of control | T/C (dose: 90.0 mg/kg/injection, schedule: Q#A X Z (oral), vehicle: carboxymethylcellulose (CMC)): 100 % of control | T/C (dose: 125.0 mg/kg/injection, schedule: Q01DX010 (oral), vehicle: other): 177 % of control | T/C (dose: 125.0 mg/kg/injection, schedule: Q01DX Z (oral), vehicle: carboxymethylcellulose (CMC)): 105 % of control | T/C (dose: 125.0 mg/kg/injection, schedule: Q01DX Z (oral), vehicle: saline): 92 % of control | T/C (dose: 135.0 mg/kg/injection, schedule: Q#A X Z (oral), vehicle: carboxymethylcellulose (CMC)): 91 % of control | T/C (dose: 180.0 mg/kg/injection, schedule: Q01DX Z (oral), vehicle: carboxymethylcellulose (CMC)): 108 % of control | T/C (dose: 202.5 mg/kg/injection, schedule: Q#A X Z (oral), vehicle: carboxymethylcellulose (CMC)): 115 % of control | T/C (dose: 250.0 mg/kg/injection, schedule: Q01DX010 (oral), vehicle: other): 194 % of control | T/C (dose: 250.0 mg/kg/injection, schedule: Q01DX Z (oral), vehicle: carboxymethylcellulose (CMC)): 120 % of control | T/C (dose: 250.0 mg/kg/injection, schedule: Q01DX Z (oral), vehicle: saline): 89 % of control | T/C (dose: 270.0 mg/kg/injection, schedule: Q01DX Z (oral), vehicle: carboxymethylcellulose (CMC)): 102 % of control | T/C (dose: 405.0 mg/kg/injection, schedule: Q01DX Z (oral), vehicle: carboxymethylcellulose (CMC)): 120 % of control | T/C (dose: 500.0 mg/kg/injection, schedule: Q01DX010 (oral), vehicle: other): 122 % of control | T/C (dose: 500.0 mg/kg/injection, schedule: Q01DX Z (oral), vehicle: saline): 113 % of control | T/C (dose: 540.0 mg/kg/injection, schedule: Q03DX Z (oral), vehicle: carboxymethylcellulose (CMC)): 98 % of control | T/C (dose: 800.0 mg/kg/injection, schedule: Q03DX Z (oral), vehicle: carboxymethylcellulose (CMC)): 112 % of control | T/C (dose: 1200.0 mg/kg/injection, schedule: Q03DX Z (oral), vehicle: carboxymethylcellulose (CMC)): 120 % of control | T/C (dose: 1200.0 mg/kg/injection, schedule: Q07DX Z (oral), vehicle: carboxymethylcellulose (CMC)): 95 % of control | T/C (dose: 1800.0 mg/kg/injection, schedule: Q07DX Z (oral), vehicle: carboxymethylcellulose (CMC)): 106 % of control | T/C (dose: 2700.0 mg/kg/injection, schedule: Q07DX Z (oral), vehicle: carboxymethylcellulose (CMC)): 124 % of control

Cc1ccc(/C([O-])=C(\C(=S)Nc2cccc(C(F)(F)F)c2)[n+]2ccccc2)cc1
T/C (dose: 100.0 mg/kg/injection, schedule: Q01DX009 (ip), vehicle: Klucel (hydroxypropylcellulose) (HPC)): 103 % of control | T/C (dose: 200.0 mg/kg/injection, schedule: Q01DX009 (ip), vehicle: Klucel (hydroxypropylcellulose) (HPC)): 103 % of control | T/C (dose: 400.0 mg/kg/injection, schedule: Q01DX009 (ip), vehicle: Klucel (hydroxypropylcellulose) (HPC)): 94 % of control

CCOC(=O)Nc1cc2[nH]cnc2c(NC(=O)OCC)n1
T/C (dose: 75.0 mg/kg/injection, schedule: Q01DX001 (ip), vehicle: saline): 95 % of control | T/C (dose: 150.0 mg/kg/injection, schedule: Q01DX001 (ip), vehicle: saline): 101 % of control | T/C (dose: 300.0 mg/kg/injection, schedule: Q01DX001 (ip), vehicle: saline): 92 % of control

CCC(C1CCC(O)CC1)C(CC)C1CCC(c2ccc(=O)oc2)C1 (centres undefined)
T/C (dose: 25.0 mg/kg/injection, schedule: Q04DX003 (ip), vehicle: saline): 100 % of control | T/C (dose: 50.0 mg/kg/injection, schedule: Q04DX003 (ip), vehicle: saline): 103 % of control | T/C (dose: 100.0 mg/kg/injection, schedule: Q04DX003 (ip), vehicle: saline): 103 % of control

O=C(O)c1cccc(S)c1
T/C (dose: 100.0 mg/kg/injection, schedule: Q04DX002 (ip), vehicle: saline with Tween-80): 113 % of control | T/C (dose: 200.0 mg/kg/injection, schedule: Q04DX002 (ip), vehicle: saline with Tween-80): 113 % of control
